In general, Ki refers to the dissociation constant of the complex between target and ligand, obtained from inhibition or displacement.

The target of this experiment is T1, PCP (Phencylidine) receptor (Rattus norvegicus, UniProt P35439).
T1 construct: the pellets were then suspended in 5mM Tris-HCI buffer and used as the receptor preparation; from tissue; host or cells: rat (male Slc-Wistar) cerebral cortex membrane preparation
The experiment can be described thus: Binding test against PCP (Phencylidine) receptor, 3H-TCP displacement in rat cortex membrane preparation. Also on record: species or system rats (male, Slc-Wistar rat). The conditions noted are these: rat cortex receptor preparation (0.2mg protein/ml), labelled ligand 3H-TCP, 25 °C 30 minutes. Here is the method:
Binding test against PCP (Phencylidine) receptor Experiment
After the decapitation of rats (male, Slc-Wistar rat, 10 15 weeks age), the cortex tissues was rapidly removed and each was weighed. The tissue was homogenized with ten-fold amount of ice-cold 50mM Tris-HCI buffer (pH7.4), and centrifuged at 40,000 x g for 10 minutes. This procedure is repeated 3 times. Then the obtained sample was freeze-dried in liquid nitrogen and preserved at -80 ° C On the test day, the sample was thawed at room temperature and centrifuged at 40,000 x g for 10 minutes, the pellets were then suspended in 5mM Tris-HCI buffer and used as the receptor preparation (0.2mg protein/ml). The preparation was added to the mixture containing the labelled ligand (^3H-TCP, […]) and the test drug, and the incubation was carried out (25 °C 30 minutes). The reaction was stopped by rapid filtering through Whatman GF/C filter and the filtrate was washed. Radioactivity on filters was determined by liquid scintillation counter and Ki value was calculated. The Whatmann GF/C filter was soaked in 0.05 % polyethyleneimine. (Literature : Vignon, J. et al., Brain R.,280; 194-197 (1983))
In the case of `c1ccc2c(c1)CCc1ccccc1C21CCCN1` [I a-1, Spiro(dibenzosuberane-5,2'-pyrrolidine)], affinity was put at a Ki of 0.047 µM.

In turn, `CCN1CCCC12c1ccccc1CCc1ccccc12` [I a-3, Spiro[dibenzosuberane-5,2'-(1-ethylpyrrolidine)]] displayed a Ki of 0.62 µM.

`Cc1ccc2c(c1)C1(CCCN1)c1ccccc1CC2` (stereo not drawn) [I a-7] yielded a Ki of 0.031 µM.

Consider `Cc1ccc2c(c1)C1(CCCN1C)c1ccccc1CC2` (stereo not drawn) [I a-8], for which affinity was put at a Ki of 0.51 µM.

Turning to `CCCN1CCCC12c1ccccc1CCc1ccc(C)cc12` (stereo not drawn) [I a-9, Spiro[3-methyldibenzosuberane-5,2'-(1-n-propylpyrrolidine)]], affinity was put at a Ki of 0.77 µM.

Turning to `CCN1CCCC12c1ccccc1CCc1ccc(C)cc12` (stereo not drawn) [I a-10], the affinity corresponds to a Ki of 0.25 µM.

In turn, `Cc1ccc2c(c1)C1(CCCN1Cc1ccccc1)c1ccccc1CC2` (stereo not drawn) [I a-11] had a Ki greater than 0.71 µM.

Molecule `Clc1ccc2c(c1)C1(CCCN1)c1ccccc1CC2` (stereo not drawn) [I a-13, Spiro(3-chlorodibenzosuberane-5,2'-pyrrolidine)] showed a Ki of 0.023 µM.

Take `CCN1CCCC12c1ccccc1CCc1ccc(Cl)cc12` (stereo not drawn) [I a-14]: the Ki came to 0.54 µM.

Source of the values: patent publication EP0456183B1, “Spiro dibenzosuberane derivatives” (SHIONOGI SEIYAKU KABUSHIKI KAISHA, priority 1990, dated 1991).
